The target in the experiment is T1, oxidosqualene cyclase (Rattus norvegicus, UniProt P48450).
T1 construct: Microsomes, prepared by ultracentrifugation of homogenates of rat liver; from tissue; host or cells: rat liver microsomes plus high speed supernatant fraction
T1 sequence (P48450 1-733): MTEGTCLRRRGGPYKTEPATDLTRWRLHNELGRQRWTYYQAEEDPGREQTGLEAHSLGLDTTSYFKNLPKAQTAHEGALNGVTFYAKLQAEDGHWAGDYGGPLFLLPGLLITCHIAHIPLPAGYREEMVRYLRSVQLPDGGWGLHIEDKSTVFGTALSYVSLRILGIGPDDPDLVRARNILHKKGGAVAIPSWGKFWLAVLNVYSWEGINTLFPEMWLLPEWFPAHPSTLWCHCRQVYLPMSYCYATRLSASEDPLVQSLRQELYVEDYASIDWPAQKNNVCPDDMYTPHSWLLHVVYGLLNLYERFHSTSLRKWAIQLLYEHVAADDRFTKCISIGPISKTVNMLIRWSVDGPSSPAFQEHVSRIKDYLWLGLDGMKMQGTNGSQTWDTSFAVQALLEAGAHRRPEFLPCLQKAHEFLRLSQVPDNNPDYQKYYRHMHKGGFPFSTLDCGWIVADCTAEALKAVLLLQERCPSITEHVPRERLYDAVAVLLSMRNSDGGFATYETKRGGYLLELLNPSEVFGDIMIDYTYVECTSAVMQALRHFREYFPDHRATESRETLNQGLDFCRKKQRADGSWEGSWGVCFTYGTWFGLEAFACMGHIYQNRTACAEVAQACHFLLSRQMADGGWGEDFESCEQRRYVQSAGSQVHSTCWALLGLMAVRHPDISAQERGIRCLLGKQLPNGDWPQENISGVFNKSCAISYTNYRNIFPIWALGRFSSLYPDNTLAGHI
The experiment in a line: Inhibition of cholesterol biosynthesis: oxidosqualene cyclase in rat liver microsomes (TLC or HPLC assay). The experiment is classed as biochemical. As to conditions: 37°C, 45 minutes, 60µM ³H-squalene, 2.0mM NADPH, 0.01mM FAD, compounds tested at 0.0 to 100.0µM, read-out: Cyclase, IC₅₀. The protocol:
The following example illustrates the utility of compounds of formula (1) in inhibiting cholesterol biosynthesis. This example is understood to be illustrative only and is not intended to limit the scope of the present invention in any way. Microsomes, prepared by ultracentrifugation of homogenates of rat liver, are incubated at 37°C for 45 muinutes in the presence of 60µM ³H-squalene, 2.0mM NADPH, 0.01mM FAD, and the high speed supernatant fraction from the microsomal preparation. Blanks, in which NADPH has been omitted, are run simultaneously with the test compounds. Compounds are tested at concentrations of 0.0 to 100.0µM.
• a) TLC Assay: Following incubation, the samples are saponified, standards are added to each sample, and then the reaction products are extracted into hexane. […] Spots containing the reaction products are scraped from the TLC plates and counted for ³H-radioactivity in a scintillation counter. An IC₅₀ for squalene epoxidase and oxidosqualene cyclase is calculated. • b) HPLC Assay: Following incubation, reactions are stopped by the addition of chloroform:methanol, standards are added, then reaction products and standards are extracted into chloroform. […] Chromatographic peaks containing reaction products are monitored for ³H- radioactivity with a flow-through scintillation counter connected in series with the HPLC column. […]
A general note: Liver microsomes are vesicles of endoplasmic reticulum, rich in cytochrome P450 enzymes.

Each structure is given as a SMILES string.

As to `CCSCCN1CCCCC1` [Compound E, 2-(1-piperidyl)ethyl ethyl sulfide], the IC50 was more than 100 µM.
Consider `CC(C)CCSCCCCCN1CCCCC1` [Compound A], for which the IC50 was 24 µM.

These data come from patent publication EP0468434B1, “Novel piperidyl ethers and thioethers as inhibitors of cholesterol biosynthesis” (MERRELL DOW PHARMACEUTICALS INC., priority 1990, dated 1992).
